Measurements published in publication PMC6616564, “Identification of ryuvidine as a KDM5A inhibitor” (Scientific Reports, 2019).
Where two headings read alike, the source gives them in different places.

Experiments:
Type in all cases: biochemical
[1] = molecular target: T1, KDM5A (His-tagged KDM5A 1-797) (Homo sapiens, UniProt P29375); experiment: AlphaScreen H3K4me3 demethylation
T1 construct: residues 1-797, C-terminally truncated, N-terminal His6 tag, Sf9 baculovirus, HisTrap purified
T1 sequence (P29375 1-797): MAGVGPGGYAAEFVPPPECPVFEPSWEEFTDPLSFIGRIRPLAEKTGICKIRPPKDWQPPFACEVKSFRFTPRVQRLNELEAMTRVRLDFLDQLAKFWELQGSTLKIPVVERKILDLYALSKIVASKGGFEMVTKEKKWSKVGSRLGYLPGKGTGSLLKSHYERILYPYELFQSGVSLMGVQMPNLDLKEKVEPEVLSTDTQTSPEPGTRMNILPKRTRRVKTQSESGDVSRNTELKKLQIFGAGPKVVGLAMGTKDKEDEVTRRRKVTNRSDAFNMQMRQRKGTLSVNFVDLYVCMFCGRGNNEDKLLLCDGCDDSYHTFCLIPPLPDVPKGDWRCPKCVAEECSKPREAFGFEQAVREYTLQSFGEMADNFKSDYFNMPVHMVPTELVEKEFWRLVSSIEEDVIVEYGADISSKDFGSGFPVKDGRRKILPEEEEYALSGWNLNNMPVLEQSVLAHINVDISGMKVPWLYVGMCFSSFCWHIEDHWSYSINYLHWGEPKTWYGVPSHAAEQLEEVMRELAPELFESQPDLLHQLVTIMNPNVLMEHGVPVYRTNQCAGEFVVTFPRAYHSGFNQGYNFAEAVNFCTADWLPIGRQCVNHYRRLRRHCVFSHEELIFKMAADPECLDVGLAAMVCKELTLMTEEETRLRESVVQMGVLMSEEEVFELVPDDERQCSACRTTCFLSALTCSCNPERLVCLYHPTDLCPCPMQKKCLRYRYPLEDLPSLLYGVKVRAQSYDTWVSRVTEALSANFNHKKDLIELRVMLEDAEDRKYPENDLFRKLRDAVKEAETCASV
Text: AlphaScreen H3K4me3 demethylation on KDM5A (His-tagged KDM5A 1-797)

[2] = molecular target: T2, LSD2 (His-tagged ΔN25 human LSD2) (Homo sapiens, UniProt Q8NB78); experiment: MALDI-TOF MS demethylation assay; conditions: no inhibition at 50 μM; 10 μM H3K4me2 peptide, pH 8.5, 37 °C
T2 construct: gene KDM1B
T2 sequence (Q8NB78 26-822): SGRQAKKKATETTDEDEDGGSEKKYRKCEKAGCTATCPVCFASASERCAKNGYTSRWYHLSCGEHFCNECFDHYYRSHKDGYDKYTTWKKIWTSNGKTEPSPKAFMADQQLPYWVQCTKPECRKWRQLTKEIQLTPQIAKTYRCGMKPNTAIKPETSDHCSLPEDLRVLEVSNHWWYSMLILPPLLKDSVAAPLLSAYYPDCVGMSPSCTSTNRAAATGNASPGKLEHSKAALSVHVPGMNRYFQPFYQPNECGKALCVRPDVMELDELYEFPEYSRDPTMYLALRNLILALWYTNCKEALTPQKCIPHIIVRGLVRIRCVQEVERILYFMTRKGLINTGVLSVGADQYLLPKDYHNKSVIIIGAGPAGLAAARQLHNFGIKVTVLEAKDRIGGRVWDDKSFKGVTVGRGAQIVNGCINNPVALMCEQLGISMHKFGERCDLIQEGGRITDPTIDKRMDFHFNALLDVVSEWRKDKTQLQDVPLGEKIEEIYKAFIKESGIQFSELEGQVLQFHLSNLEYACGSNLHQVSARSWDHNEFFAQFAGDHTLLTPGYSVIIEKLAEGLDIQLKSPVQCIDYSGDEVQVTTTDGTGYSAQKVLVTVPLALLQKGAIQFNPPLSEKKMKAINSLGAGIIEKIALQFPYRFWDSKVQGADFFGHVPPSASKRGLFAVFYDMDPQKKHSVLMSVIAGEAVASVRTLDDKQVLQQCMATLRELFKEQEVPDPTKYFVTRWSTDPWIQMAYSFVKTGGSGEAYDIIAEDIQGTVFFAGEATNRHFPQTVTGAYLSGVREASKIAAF
Text: MALDI-TOF MS demethylation assay on LSD2 (His-tagged ΔN25 human LSD2)

[3] = molecular target: T3, KDM5C (His-tagged KDM5C 1-839) (Homo sapiens, UniProt P41229); experiment: MALDI-TOF MS demethylation assay
T3 construct: residues 1-839, C-terminally truncated, N-terminal His6 tag, Sf9 baculovirus, HisTrap purified
T3 sequence (P41229 1-839): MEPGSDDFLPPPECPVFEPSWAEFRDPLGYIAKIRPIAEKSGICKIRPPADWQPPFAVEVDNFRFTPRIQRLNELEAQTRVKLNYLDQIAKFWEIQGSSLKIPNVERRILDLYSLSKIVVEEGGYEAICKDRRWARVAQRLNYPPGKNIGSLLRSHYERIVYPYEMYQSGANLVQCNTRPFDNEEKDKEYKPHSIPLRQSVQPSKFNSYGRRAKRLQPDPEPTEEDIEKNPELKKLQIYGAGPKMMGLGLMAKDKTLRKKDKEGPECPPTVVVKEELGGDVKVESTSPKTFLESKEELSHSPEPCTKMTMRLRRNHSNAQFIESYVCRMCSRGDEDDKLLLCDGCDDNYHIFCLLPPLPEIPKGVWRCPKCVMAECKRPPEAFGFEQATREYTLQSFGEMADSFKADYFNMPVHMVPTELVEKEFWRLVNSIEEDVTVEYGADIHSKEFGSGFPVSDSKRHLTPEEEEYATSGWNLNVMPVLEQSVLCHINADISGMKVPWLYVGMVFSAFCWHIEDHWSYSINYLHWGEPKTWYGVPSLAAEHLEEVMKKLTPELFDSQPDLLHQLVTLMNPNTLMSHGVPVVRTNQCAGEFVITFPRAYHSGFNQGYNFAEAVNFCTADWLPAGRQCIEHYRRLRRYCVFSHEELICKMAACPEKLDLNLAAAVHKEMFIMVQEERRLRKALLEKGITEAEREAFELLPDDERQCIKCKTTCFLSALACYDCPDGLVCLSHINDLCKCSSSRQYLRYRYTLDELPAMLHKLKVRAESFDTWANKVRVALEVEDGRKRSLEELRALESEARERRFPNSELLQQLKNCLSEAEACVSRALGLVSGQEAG
Text: MALDI-TOF MS demethylation assay on KDM5C (His-tagged KDM5C 1-839)

[4] = molecular target: T4, KDM5B (His-tagged KDM5B 1-769) (Homo sapiens, UniProt Q9UGL1); experiment: MALDI-TOF MS demethylation assay
T4 construct: residues 1-769, C-terminally truncated, N-terminal His6 tag, Sf9 baculovirus, HisTrap purified
T4 sequence (Q9UGL1 1-769): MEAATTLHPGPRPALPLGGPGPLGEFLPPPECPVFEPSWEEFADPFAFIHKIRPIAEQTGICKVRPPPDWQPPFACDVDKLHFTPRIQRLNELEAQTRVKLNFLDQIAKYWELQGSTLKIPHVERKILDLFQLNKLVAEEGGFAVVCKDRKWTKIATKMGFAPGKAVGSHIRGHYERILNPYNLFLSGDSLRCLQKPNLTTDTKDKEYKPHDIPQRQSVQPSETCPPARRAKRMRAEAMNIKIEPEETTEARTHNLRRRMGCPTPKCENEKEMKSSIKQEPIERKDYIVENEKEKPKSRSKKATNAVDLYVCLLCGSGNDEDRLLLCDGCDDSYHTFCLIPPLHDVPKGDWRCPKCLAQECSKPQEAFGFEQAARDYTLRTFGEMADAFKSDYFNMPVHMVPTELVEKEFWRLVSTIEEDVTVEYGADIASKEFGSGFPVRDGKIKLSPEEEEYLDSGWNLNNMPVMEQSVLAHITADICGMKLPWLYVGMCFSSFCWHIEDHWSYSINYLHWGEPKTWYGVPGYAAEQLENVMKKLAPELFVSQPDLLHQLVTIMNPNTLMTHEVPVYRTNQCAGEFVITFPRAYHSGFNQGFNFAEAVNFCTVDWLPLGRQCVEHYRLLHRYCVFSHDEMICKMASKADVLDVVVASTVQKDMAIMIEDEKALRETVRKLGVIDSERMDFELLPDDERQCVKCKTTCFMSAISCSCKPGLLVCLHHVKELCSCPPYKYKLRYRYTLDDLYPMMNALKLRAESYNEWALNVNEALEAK
Text: MALDI-TOF MS demethylation assay on KDM5B (His-tagged KDM5B 1-769)

[5] = molecular target: T5, LSD1 (His-tagged human full-length LSD1) (Homo sapiens, UniProt O60341); experiment: MALDI-TOF MS demethylation assay; conditions: no inhibition at 50 μM; 30 μM H3K4me2 peptide, pH 7.5, 37 °C
T5 construct: gene KDM1A
Text: MALDI-TOF MS demethylation assay on LSD1 (His-tagged human full-length LSD1)

| SMILES | IC50 ([1]; read-out: IC50 (μM)^a) | further results |
| --- | --- | --- |
| O=[N+]([O-])c1ccc(O)c2ncccc12 [Nitroxoline] | 5 µM |  |
| Nc1ccc2cc3ccc(N)cc3nc2c1 [Proflavine Hemisulfate] | 1.8 µM |  |
| Cc1ccc(NC2=CC(=O)c3sc(C)nc3C2=O)cc1 [Ryuvidine] | 1.4 µM | IC50 [2]: > 50000 nM; IC50 [3]: 8730 ± 1800 nM; IC50 [4]: 26 ± 10 nM; IC50 [5]: > 50000 nM |
| CN(C)c1ccc2nc3ccc(=[N+](C)C)cc-3sc2c1 [Methylene Blue] | 1.1 µM |  |
| Cc1cc2nc3ccc(N(C)C)cc3[s+]c2cc1N [Tolonium Chloride] | 1.7 µM |  |
| C[CH2][Hg][S]c1ccccc1C(=O)O [Thimerosal] |  | IC50 [1]: 0.13 µM |

The next lines start with results.

| IC50 ([1]; read-out: IC50 (μM)^a) | SMILES | further results |
| --- | --- | --- |
| 2.6 µM | CC1(C)C(=O)N=C2C1=C(O)C(=O)c1ccccc12 [BVT948] |  |
| 0.055 µM | O=C1C(SCCO)=C(SCCO)C(=O)c2ccccc21 [NSC95397] |  |
